Data: PubChem BioAssay (NCI)
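Compound exposure: 48 hours, 5 concentrations, 96-well plates. TGI: concentration producing complete growth inhibition.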

Legend:
Test in all cases: NCI tumour cell line growth inhibition, 48 h
[1] = system: RPMI-8226 leukemia
[2] = system: OVCAR-8 ovarian
[3] = system: HOP-62 NSCLC
[4] = system: SF-539 CNS
[5] = system: T-47D breast
[6] = system: ACHN renal
[7] = system: CCRF-CEM leukemia
[8] = system: IGROV1 ovarian
[9] = system: NCI-H522 lung
[10] = system: EKVX NSCLC
[11] = system: SW-620 colon
[12] = system: PC-3 prostate
[13] = system: TK-10 renal
[14] = system: CAKI-1 renal
[15] = system: UACC-257 melanoma
[16] = system: MOLT-4 leukemia
[17] = system: HT29 colon
[18] = system: DU-145 prostate
[19] = system: SR leukemia
[20] = system: MCF7 breast
[21] = system: K-562 leukemia
[22] = system: MALME-3M melanoma
[23] = system: SN12C renal
[24] = system: HCC-2998 colon
[25] = system: SK-MEL-5 melanoma
[26] = system: COLO 205 colon
[27] = system: MDA-MB-435
[28] = system: A498 renal
[29] = system: HS 578T breast
[30] = system: M14 melanoma
[31] = system: NCI-H226 lung
[32] = system: A549 NSCLC
[33] = system: UO-31 renal
[34] = system: NCI-H460 lung
[35] = system: BT-549 breast
[36] = system: NCI-H23 lung
[37] = system: SK-OV-3 ovarian
[38] = system: SNB-75 CNS
[39] = system: SF-268 CNS
[40] = system: UACC-62 melanoma
[41] = system: HCT-15 colon
[42] = system: 786-0 renal
[43] = system: SF-295 CNS
[44] = system: MDA-N
[45] = system: KM12 colon
[46] = system: SK-MEL-28 melanoma
[47] = system: HCT-116 colon
[48] = system: HL-60(TB) leukemia
[49] = system: LOX IMVI melanoma
[50] = system: SNB-19 CNS
[51] = system: MDA-MB-231 breast

Measured: TGI

Cc1nn(C(=O)Cc2ccccc2)c2c1C(c1ccc(O)cc1)SC(N)=N2 (stereo unspecified)
> 100 µM: all assays above
